Columns and labels:
Female land race pigs = test: In vivo pig urodynamic model (urodynamic and cardiovascular parameters)
Protocol: The animal model employed in this study was a slight modification of the previously described pig in vivo urodynamic model by Mills (1999). Surgical procedures were performed by Home Office personal licence holders. Female land race pigs of about 60 kg in weight were used for this study.
Pigs were initially sedated with ketamine hydrochloride 15 mg/kg (ketaset, Willows Francis Veterinary, Crawley, UK) and midazolam 0.2 mg/kg (Hypnovel, Roche Products Ltd, Welwyn Garden City, UK) through an intravenous central line. […] The induction phase of general anaesthesia was accomplished with 5% halothane (Fluothane, Astra ZenecaLtd, Macclesfield UK) in nitrous oxide 50%/oxygen 50%, delivered from an anaesthetic machine through a conical mask which was held over the snout of the pig. Following the induction phase, the maintenance phase of general anaesthesia was achieved using intravenous 1% propofol at the rate of 200 mg/hr.
At the start of surgery, the pig was initially placed in the left lateral position allowing access to the lumbar dorsal region. A stab incision for each catheter was made in the lumbar dorsal midline, as well as a single small right iliac fossa incision. Using a specially designed trocar, the peritoneal catheter and the proximal portions of the vesical catheters were tunneled from the dorsal lumbar incision to the right iliac fossa, such that the cuff at the proximal end finished in a small subcutaneous pocket. Each incision was approximated with two interrupted 2/0 nylon sutures, taking care to avoid occlusion of the catheters. The pig was then turned into a supine position and a lower abdominal incision made. Using a Spencer-Well forceps, the peritoneum and abdominal wall muscles were pierced from inside out and three catheters grabbed and pulled into the peritoneal cavity. The longer peritoneal catheter was placed in the vesico-vaginal pouch. Two purse-string sutures of 2/0 silk were placed in the apex of the bladder, and stab incisions made through the centre of each of these. The distal shorter halves of the vesical lines were introduced into the bladder through these incisions and the purse-strings tied, ensuring that the lumen of each catheter remained patent. Each side of the small pieces of silastic sheet on these catheters was sutured to the serosa of the bladder, in order to provide further security against subsequent line displacement. These distal portions of the two vesical catheters were then connected to the proximal portions using the nylon connectors. The abdominal wound was closed en masse with 1 nylon, followed by 2/0 chromic catgut to fat and interrupted 2/0 nylon to the skin. The right iliac fossa wound was closed in layers with vicryl to internal oblique and external oblique and interrupted 2/0 nylon to the skin. One of the vesical lines was attached to another piece of tubing externally and left on free drainage for 48 hours to allow the bladder to heal.
Following induction of anaesthesia, the animal was placed in a supine position and covered with a warm water blanket to maintain body temperature. A small incision was then made in the left groin area through which the left femoral artery was identified by palpation. The artery was then cannulated with an arterial […] cannulae (Abbocath-T, Abbott Ireland, and Sligo, Ireland) which was then connected to a pressure transducer for the measurement of arterial pressure. Vesico-urethral junction cystometry was obtained using a catheter mounted with a microtranducer (Gaeltec LTD, Isle of Skye). To cannulate the urethra, the vagina was opened with a speculum to expose the external urethral orifice which is high up in the anterior wall of the vagina. Having identified the external orifice the catheter was then inserted into the urethra by direct vision, thereafter it was gradually withdrawn until it was positioned in the vesico-urethral junction. […]

[1] = tested on: vesicourethral junction sphincter muscle strips; test: Enzyme assay: regeneration of 1R,2S-methoxamine from compound (Ia) by gamma glutamyl transferase, reaction product tested on muscle strips; assay type: cell-based, pig; details: for response of muscle strips: 0.3 mM
Protocol: Regeneration of 1R,2S-methoxamine from the Compound of Formula (Ia)
Into a clean glass vial (1 ml volume) the following reaction mixtures were pipetted as follows:
200 μl compound of formula (Ia), 10 mg/ml in Tris buffer (mol. wt. 376, therefore=2 mg compound of formula (Ia)=5.3 μMoles), 100 μl solution E
Reaction product of groups 1, 2 and 3 were only tested for biological activity after 30 minutes of incubation period at 37° C. while that of group 4 were also tested after, 10, 30 and 60 minutes of incubation period. A 5 h group of which reaction mixture indicated in group four were diluted by two fold after 30 min incubation were also tested for biological activity.
Gamma glutamyl transferase, 2-1-18 porcine kidney was purchased from Calzyme Labs San Luis Obispo, Calif. 93401 USA, glyclglycine was obtained from Acros Organics, New Jersey, USA while L-glutamic acid 5-(4-nitroanilide) was purchased from Fluka Chemie Switzerland.
The reaction mixture was incubated in HOT BOX oven, size one incubator made by Gallenpark, England, while the absorbance was measured (@λmax 405 nm), using Anthos 2020 UV/VIS spectrophotometer.
Representative traces of pig vesicourethral junction sphincter muscle response to various enzyme reaction products are shown in FIG. 3 and representative traces of pig proximal sphincter muscle response to various enzyme reaction products are shown in FIG. 4. The enzyme reaction products tested are as follows: • FIG. 3a-50 mM Tris HCl buffer; • FIG. 3b-50 mM Tris HCl buffer, gamma glutamyl transferase. • FIG. 3c-50 mM Tris HCl buffer, MgCl2.6H2O, glycylglycine, compound of formula (Ia); • FIG. 4a-50 mM Tris HCl buffer, MgCl2.6H2O, glycylglycine, gamma glutamyl transferase, compound of formula (Ia); • FIG. 4b-0.3 mM 1R,2S-methoxamine.

[2] = 1 mg/kg iv bolus, mean of three voiding cycles

## COc1ccc(OC)c([C@@H](O)[C@H](C)NC(=O)CC[C@H](N)C(=O)O)c1 [compound of formula (Ia), (S)-2-Amino-4-[(1S,2R)-2-(2,5-dimethoxyphenyl)-2-hydroxy-1-methyl-ethylcarbamoyl]butyric acid]
Female land race pigs; 1 mg/kg iv
  VUJ threshold pressure, greater than control runs: about 31%
  duration of voiding, change from control: 4.1%
  fall in deutrusor voiding pressure from the control runs: 36.5%
  flow rate, change from control: 2.4%
  voiding intervals, change from control: −4.7%
Female land race pigs; [2]
  deutrusor voiding pressure: 28±10.11 cmH2O
  intravesical threshold voiding pressure: 16.23±1.16 cmH2O
  voiding pressure during the voiding phase: 41.1±8.3 cmH2O
Female land race pigs; 1 mg/kg iv bolus, mean of three voiding cycles, one animal
  bladder intravesical baseline pressure: 8.53±0.34 cmH2O
Female land race pigs; 1 mg/kg iv, versus control
  reduction in residual volume: 31%
  rise in the threshold VUJ voiding pressure: 15%
Female land race pigs; 1 mg/kg iv, versus control runs
  VUJ baseline pressure: transient rise
Female land race pigs; 1 mg/kg iv, arterial line flushed after dosing
  arterial pressure, change from the control: 15%
Female land race pigs; 1 mg/kg iv, voided volume as percentage of bladder capacity
  voiding efficiency: 95%
[1]; prepared in saline
  response of muscle strips: 1.15 g
[1]; prepared in tris buffer
  response of muscle strips: 1.22 g
[1]; 2-fold dilution post 30 min incubation with the enzyme
  reduction of bladder activity of the reaction mixture: 38%
[1]; Mg^2+-glycylglycine-compound-enzyme mixture, 30 min incubation
  contractile response: 1.62 g
[1]; administered with gamma glutamyl transferase and glycylglycine, FIG. 4a
  contractile response of pig bladder neck muscle: pronounced well defined contractile response
[1]; buffer-Mg^2+-glycylglycine-compound, no enzyme, 30 min incubation
  contractile response: 0.12 g
[1]; reaction mixture with enzyme, 10 min incubation
  contractile response: 1.52 g
[1]; reaction mixture with enzyme, 60 min incubation
  contractile response: 1.10 g

— patent publication US20080090916A1, “Compounds for Treating Urinary Incontinence” (priority 2005, published 2008)
